# Where two headings read alike, the source gives them in different places.
# Key:
# [1] = tested on: COVID-19; conditions: hospitalized COVID-19 patients; ref ClinicalTrials.gov NCT04776044; cited from earlier work
# [2] = tested on: IAV PR8 NP; type: cell-based; conditions: MOI 0.01, 24 h; for reduction of IAV PR8 NP (NP/ERK2 normalized to solvent control): both cell lines
# [3] = tested on: IAV PR8; type: cell-based; conditions: 100 µM, Caco-2 cells, MOI 4, 10 h
# [4] = tested on: ERK2; experiment: ERK2 content in cell lysates by WES; type: cell-based, Homo sapiens; conditions: Caco-2 and Calu-3 cell lysates, 24 h of treatment
# Method: Cells were lysed using cold modified RIPA buffer [0.24% (w/v) tris base (Sigma-Aldrich, St. Louis, Missouri, USA), 0.88% (w/v) NaCl (Carl Roth, Karlsruhe, Germany), 0.2% (v/v) 500 mM ethylenediaminetetraacetic acid (EDTA) (Sigma-Aldrich, St. Louis, Missouri, USA), 1% (v/v) Triton X-100 (Sigma-Aldrich, St. Louis, Missouri, USA), 0.5% (w/v) sodium deoxycholate (Sigma-Aldrich, St. Louis, Missouri, USA), 0.1% (w/v) sodium dodecyl sulfate (SDS) (Carl Roth, Karlsruhe, Germany), 10% (v/v) glycerol (Carl Roth, Karlsruhe, Germany), 0.05% phenylmethylsulfonyl fluoride (PMSF) (Carl Roth, Karlsruhe, Germany), 0.01% Benzonase® Nuclease (Sigma-Aldrich, St. Louis, Missouri, USA), protease inhibitor cocktail (Roche, Basel, Switzerland), and phosphatase inhibitor cocktail (Roche, Basel, Switzerland) in water]. Determination of the protein concentration was performed using the Pierce™ BCA Protein Assay Kit (Thermo Fisher Scientific Inc., Waltham, MA, USA) according to the manufacturer’s instructions. […] Ratios were calculated from the area under the curve of the respective detected signals.
# [5] = tested on: SARS-CoV-2 B.1 isolate “FI”; parameters: method as in Schreiber et al., 2022; conditions: ref Schreiber et al., 2022, read-out: EC50 value against SARS-CoV-2; cited from earlier work
# [6] = tested on: SARS-CoV-2; type: cell-based; conditions: 100 µM, Caco-2 cells, MOI 4, 10 h
# [7] = human, in vivo; cited from earlier work
# [8] = tested on: MEK1/2 (ERK1/2 phosphorylation); experiment: IC50 determination in the absence of viral infection, TNF-α-stimulated cells, pERK/ERK ratio by WES; type: cell-based; conditions: Homo sapiens, TNF-α 30 min then 1 h treatment, no virus
# Method: Cells were lysed using cold modified RIPA buffer [0.24% (w/v) tris base (Sigma-Aldrich, St. Louis, Missouri, USA), 0.88% (w/v) NaCl (Carl Roth, Karlsruhe, Germany), 0.2% (v/v) 500 mM ethylenediaminetetraacetic acid (EDTA) (Sigma-Aldrich, St. Louis, Missouri, USA), 1% (v/v) Triton X-100 (Sigma-Aldrich, St. Louis, Missouri, USA), 0.5% (w/v) sodium deoxycholate (Sigma-Aldrich, St. Louis, Missouri, USA), 0.1% (w/v) sodium dodecyl sulfate (SDS) (Carl Roth, Karlsruhe, Germany), 10% (v/v) glycerol (Carl Roth, Karlsruhe, Germany), 0.05% phenylmethylsulfonyl fluoride (PMSF) (Carl Roth, Karlsruhe, Germany), 0.01% Benzonase® Nuclease (Sigma-Aldrich, St. Louis, Missouri, USA), protease inhibitor cocktail (Roche, Basel, Switzerland), and phosphatase inhibitor cocktail (Roche, Basel, Switzerland) in water]. Determination of the protein concentration was performed using the Pierce™ BCA Protein Assay Kit (Thermo Fisher Scientific Inc., Waltham, MA, USA) according to the manufacturer’s instructions. The samples were analyzed by Wes™ using a total protein concentration of 0.25–0.5 µg/µL for each sample, the Jess/Wes Separation kit (12–230 kDa), primary antibodies against ERK1/2, p44/42 MAPK (137F5) Rabbit mAb (Cell Signaling Technology, Danvers, MA, USA, Cat. No. 4695S) and phospho-ERK1/2 (pERK1/2), Phospho-p44/42 MAPK (Erk1/2) (Thr202/Tyr204) (D13.14.4E), XP® Rabbit mAb (Cell Signaling Technology, Danvers, MA, USA, Cat. no. 4370S) in a 1:50 dilution, anti-Influenza A virus Nucleoprotein (NP) antibody (rabbit MAb) (Sino Biological, Beijing, China Cat.no 40208-R010) in a 1:150 dilution, SARS-CoV-2 nucleocapsid protein antibody (ProSci Inc., Poway, CA, USA, Cat. no. 35-580) in a 1:100 dilution, the anti-goat, anti-rabbit, and anti-mouse detection modules, and the EZ Standard Pack 1 (12–230 kDa), according to the manufacturer’s instructions. Analysis of the obtained data was performed using the Compass for SW 4.1.0 software, Microsoft Excel, and the GraphPad Prism 9.2.0 software. Ratios were calculated from the area under the curve of the respective detected signals.
# Twenty-four hours before the experiment, the growth medium was exchanged to medium with respective FBS or BSA concentration. Then, cells were stimulated by the addition of tumor necrosis factor alpha (TNF-α) (Sigma-Aldrich, St. Louis, Missouri, USA) for 30 min at 37°C, 5% CO2, followed by treatment with different zapnometinib concentrations and a DMSO (solvent) control for 1 h. For determination of the IC50 value in cells infected with IAV PR8 or SARS-CoV-2, cells were infected with the respective virus and treated with zapnometinib for 24 h as described in the “Virus yield reduction assay” section. After incubation, cell lysates were prepared, and the samples were analyzed by WES™ as described in the “Preparation of cell lysates and WES™ analysis” section. The pERK/ERK ratio was calculated and normalized to the solvent control. IC50 values were determined using the “log(inhibitor) vs. response -Variable slope (four parameters)” equation in GraphPad Prism version 9.4.0.
# [9] = tested on: IBV Lee; parameters: method as in Laure et al., 2020; conditions: medium containing 0.2% BSA, ref Laure et al., 2020; cited from earlier work
structure (smiles),measurement,setting,value
"O=C(O)c1ccc(F)c(F)c1Nc1ccc(I)cc1Cl [zapnometinib, 2-(2-chloro-4-iodophenylamino)-N-3,4-difluoro benzoic acid]","efficacy in terms of the primary endpoint, phase II clinical trial",[1],clinically relevant efficacy profile
same,"safety profile, phase II clinical trial",[1],favorable safety profile
same,reduction of IAV PR8 NP (NP/ERK2 normalized to solvent control),[2]; 12.5 µM,approximately 50%
same,reduction of IAV PR8 NP (NP/ERK2 normalized to solvent control),[2]; 50 µM,> 70%
same,reduction of IAV PR8 NP (NP/ERK2 normalized to solvent control),[2]; 100 µM,> 80%
same,lowest concentration at which IAV PR8 NP was significantly reduced compared to solvent control,[2],0.39 µM
same,Infected cells (IAV PR8 NP positive) normalized to solvent control,[3],44.9%
same,localization of the IAV NP,[3],retention of the IAV NP in the nucleus
same,effect on ERK2 content in the cells,[4],does not affect
same,EC50,[5],31.3 µM
same,Infected cells (SARS-CoV-2 N positive) normalized to solvent control,[6],18.3%
same,amount of SARS-CoV-2 N,[6],reduced
same,distribution of the SARS-CoV-2 N,[6],did not change
same,tolerability in phase I clinical trial,[7],well tolerated
same,IC50,"[8]; Caco-2, Caco-2 cells, 0% FBS",0.04 µM
same,IC50,"[8]; Caco-2, Caco-2 cells, 0.2% BSA",4.32 µM
same,IC50,"[8]; Caco-2, Caco-2 cells, 5% FBS",4.46 µM
same,IC50,"[8]; Caco-2, Caco-2 cells, 10% FBS",9.15 µM
same,IC50,"[8]; Calu-3, Calu-3 cells, 0% FBS",0.06 µM
same,IC50,"[8]; Calu-3, Calu-3 cells, 0.2% BSA",5.33 µM
same,IC50,"[8]; Calu-3, Calu-3 cells, 5% FBS",6.64 µM
same,IC50,"[8]; Calu-3, Calu-3 cells, 10% FBS",8.25 µM
same,EC50,[9],4.19 µM
